Assay results reported in patent US12195427B2, “MASP-2 inhibitors and methods of use” (priority 2018, dated 2025).
Counter-ions that a name gives are not always drawn. Values belong to the molecule of their own block, whether it stands above or below them.

Target: MASP-2 CCP2-SP (Homo sapiens (Human), UniProt O00187)
Test: MASP-2 co-crystallization, X-ray crystallography and structure analysis (H-bonds, van der Waals contacts);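 for Ligand-pharmacophore element distance, pharmacophore element C2: distance from averaged pharmacophore element to bound ligand; missing value means element absent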;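 for Ligand-pharmacophore element distance, pharmacophore element C3: distance from averaged pharmacophore element to bound ligand; missing value means element absent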;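 for Ligand-pharmacophore element distance, pharmacophore element C4: distance from averaged pharmacophore element to bound ligand; missing value means element absent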;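 for Ligand-pharmacophore element distance, pharmacophore element C5: distance from averaged pharmacophore element to bound ligand; missing value means element absent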
Set-up: van der Waals contact distance, MASP-2 HIS 483 atom CD2 / van der Waals contact distance, MASP-2 HIS 483 atom NE2 / van der Waals contact distance, SER 654 C to compound atom / van der Waals contact distance, SER 654 O to compound atom / van der Waals contact distance, TRP 655 C to compound atom / van der Waals contact distance, MASP-2 GLY 528 atom CA / van der Waals contact distance TRP 655 atom CZ3 / van der Waals contact distance TRP 655 atom N / van der Waals contact distance TRP 655 atom CE3 / van der Waals contact distance GLY 656 atom C / van der Waals contact distance GLY 656 atom CA / van der Waals contact distance GLY 656 atom O / van der Waals contact distance, MASP-2 TYR 607 atom CD1 / van der Waals contact distance, MASP-2 PRO 606 atom O / d(C3,CA1) / d(CA1,N1)2 / d(H4,O1) / d(H4,O2) / d(O1,O2) / d(CA1,O2) / d(CA6,O1) / d(CA6,O2) / d(CA1,C5) / d(O2,H3) / d(N2,C2) / d(CA5,N2) / d(N2,C4) / d(N2,C6) / d(N2,CA3) / d(N2,O3) / d(O4,H2): unit not given beside the values
Settings: for Ligand-pharmacophore element distance, pharmacophore element C2 / Ligand-pharmacophore element distance, pharmacophore element C3 / Ligand-pharmacophore element distance, pharmacophore element C4 / Ligand-pharmacophore element distance, pharmacophore element C5 / Ligand-pharmacophore element distance, pharmacophore element C6 / Ligand-pharmacophore element distance, pharmacophore element C7 / Ligand-pharmacophore element distance, pharmacophore element CA1 / Ligand-pharmacophore element distance, pharmacophore element CA2 / Ligand-pharmacophore element distance, pharmacophore element CA3 / Ligand-pharmacophore element distance, pharmacophore element CA4 / Ligand-pharmacophore element distance, pharmacophore element CA5 / Ligand-pharmacophore element distance, pharmacophore element CA6: Table A4-1; for A(N1, CA1, O1) a): all compounds with protonatable center N1 except Methyl-amino-pyridine
Summary of the method: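 Contacts and H-bonds come from partially refined soaked-crystal structures of recombinant human CCP2-SP made in E. coli, solved by molecular replacement against 1Q3X fragments. Where several ligand poses appeared, only one was analysed; listed nonbonded contacts may include possible H-bond pairings.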

[1] = Table A5-1 pharmacophore: distance between elements, S2/S1 region
[2] = Table A5-2 pharmacophore distance, S3/S4 region
[3] = Table A7-1, between pharmacophore elements of the bound compound
[4] = Table A7-2, between pharmacophore elements of the bound compound
[5] = Table A8-6, nearest protein atom in cell to the left

MASP-2 CCP2-SP, sequence (O00187 445-686): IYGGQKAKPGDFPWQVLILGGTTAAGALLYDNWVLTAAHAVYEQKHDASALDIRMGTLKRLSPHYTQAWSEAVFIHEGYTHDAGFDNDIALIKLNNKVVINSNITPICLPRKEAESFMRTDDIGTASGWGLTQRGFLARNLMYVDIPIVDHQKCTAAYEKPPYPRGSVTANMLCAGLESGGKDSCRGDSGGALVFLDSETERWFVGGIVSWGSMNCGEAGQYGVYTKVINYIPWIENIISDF
MASP-2 CCP2-SP, sequence (O00187 364-432 partner): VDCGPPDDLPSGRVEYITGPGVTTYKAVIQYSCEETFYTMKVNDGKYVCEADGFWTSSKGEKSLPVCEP

H-bond distance to MASP-2 ASP 627 atom OD2 (Table A1 (H-Bonds), ASP 627 OD2): 3.32
H-bond distance to MASP-2 GLY 656 atom N (Table A1 (H-Bonds), GLY 656 N): 3.06
H-bond distance to MASP-2 GLY 656 atom O (Table A1 (H-Bonds), GLY 656 O): 2.7
H-bond distance to MASP-2 SER 654 atom O (Table A1 (H-Bonds), SER 654 O): 2.78
H-bond distance to MASP-2 SER 657 atom O (Table A1 (H-Bonds), SER 657 O): 2.72
H-bond distance to MASP-2 SER 657 atom OG (Table A1 (H-Bonds), SER 657 OG): 2.62
van der Waals contact distance, MASP-2 HIS 483 atom CD2 (Table A2-1): 3.78
van der Waals contact distance, MASP-2 PRO 606 atom O (Table A2-4): 3.81
van der Waals contact distance, MASP-2 amino acid atom to compound atom (Table A2-9 second part, ARG 630, AA atoms N, NE, NH1): 3.71
van der Waals contact distance, SER 654 C to compound atom (Table A2-11): 3.88
van der Waals contact distance, VAL 653 CG1 to compound atom (Table A2-11): 3.61
van der Waals contact distance, TRP 655 C to compound atom (Table A2-12): 3.7
van der Waals contact distance TRP 655 atom CE3 (Table A2-13, MASP-2 TRP 655 CE3, compound atom in line below): 3.74
van der Waals contact distance, MASP-2 amino acid atom to compound atom (Table A2 section before Table A2-8): 3.86
Ligand-pharmacophore element distance, pharmacophore element C2: 2.91
Ligand-pharmacophore element distance, pharmacophore element C3: 0
Ligand-pharmacophore element distance, pharmacophore element C4: 0
Ligand-pharmacophore element distance, pharmacophore element C5: 0
Ligand-pharmacophore element distance, pharmacophore element C6: 0
Ligand-pharmacophore element distance, pharmacophore element C7: 0
Ligand-pharmacophore element distance, pharmacophore element CA1: 1.7
Ligand-pharmacophore element distance, pharmacophore element CA2: 0
Ligand-pharmacophore element distance, pharmacophore element CA3: 0
Ligand-pharmacophore element distance, pharmacophore element CA4: 0
Ligand-pharmacophore element distance, pharmacophore element CA5: 0.84
Ligand-pharmacophore element distance, pharmacophore element CA6: 0
d(CA1,N1) [1]: 1.85
d(CA1,O1) [1]: 4.66
d(CA1,O2) [1]: 6.47
d(CA6,O1) [1]: 3.43
d(CA6,O2) [1]: 1.13
d(H4,O1) [1]: 3.14
d(H4,O2) [1]: 5.11
d(O1,O2) [1]: 3.18
d(O2,H3) [2]: 7.20
a(CA1, O1, O2) (Table A6-1 pharmacophore angle): 137.45
a(O1, CA6, O2) (Table A6-1 pharmacophore angle): 87.17
a(O1, O2, H4) (Table A6-1 pharmacophore angle): 143.64
A(N1, CA1, O1) a) (Table A6-1 pharmacophore angle): 173.84
a(O1, O2, H3) (Table A6-2 pharmacophore angle): 153.97
Pharmacophore torsion angle a(CA6, O1, H4, O2) [3]: −19.90
Pharmacophore torsion angle a(H4, O1, O2, H3) [3]: 94.72
Pharmacophore torsion angle a(N1, CA1, O2, H4) [3]: −132.36
Pharmacophore torsion angle a(O1, H4, O2, CA1) [3]: −60.21
Structure (SMILES): Cc1cnc(NCCc2ccccc2)c(=O)n1CC(=O)NCc1ccc2nc(N)[nH]c2c1 [compound 1492, N-((2-Amino-1H-benzo[d]imidazol-6-yl)methyl)-2-(6-methyl-2-oxo-3-(phenethylamino)pyrazin-1(2H)-yl)acetamide Trifluoroacetamide salt]

Structure (SMILES): CC(NC(=O)C(CCc1ccccc1)NCc1ccc(C(=O)N2CCOCC2)cc1)C(=O)NCc1ccc(C(=N)N)cc1.Cl.Cl (centres unmarked) [1153_A]
Ligand-pharmacophore element distance, pharmacophore element C2: 8.69
Ligand-pharmacophore element distance, pharmacophore element C3: 0
Ligand-pharmacophore element distance, pharmacophore element C4: 0
Ligand-pharmacophore element distance, pharmacophore element C5: 0
Ligand-pharmacophore element distance, pharmacophore element C6: 0
Ligand-pharmacophore element distance, pharmacophore element C7: 0
Ligand-pharmacophore element distance, pharmacophore element CA1: 0.43
Ligand-pharmacophore element distance, pharmacophore element CA2: 0.34
Ligand-pharmacophore element distance, pharmacophore element CA3: 4.19
Ligand-pharmacophore element distance, pharmacophore element CA4: 0
Ligand-pharmacophore element distance, pharmacophore element CA5: 0
Ligand-pharmacophore element distance, pharmacophore element CA6: 0
d(CA1,N1) [1]: 3.54
d(CA1,O1) [1]: 5.79
d(CA1,O2) [1]: 4.38
d(H4,O1) [1]: 6.25
d(H4,O2) [1]: 4.36
d(O1,O2) [1]: 4.62
d(N2,C2) [2]: 8.34
d(N2,CA2) [2]: 6.18
d(N2,CA3) [2]: 3.78
d(N2,O3) [2]: 7.78
d(O2,H3) [2]: 2.71
d(O2,N2) [2]: 2.88
a(CA1, O1, O2) (Table A6-1 pharmacophore angle): 99.83
a(O1, O2, H4) (Table A6-1 pharmacophore angle): 132.39
A(N1, CA1, O1) a) (Table A6-1 pharmacophore angle): 174.13
a(O1, O2, H3) (Table A6-2 pharmacophore angle): 138.79
a(O1, O2, N2) (Table A6-2 pharmacophore angle): 132.96
a(O2, N2, C2) (Table A6-2 pharmacophore angle): 168.69
a(O2, N2, CA2) (Table A6-2 pharmacophore angle): 152.46
a(O2, N2, CA3) (Table A6-2 pharmacophore angle): 157.4
a(O2, N2, O3) (Table A6-2 pharmacophore angle): 167.7
Pharmacophore torsion angle a(H4, O1, O2, H3) [3]: 86.11
Pharmacophore torsion angle a(H4, O1, O2, N2) [3]: 97.90
Pharmacophore torsion angle a(N1, CA1, O2, H4) [3]: −11.60
Pharmacophore torsion angle a(O1, H4, O2, CA1) [3]: 15.20
Pharmacophore torsion angle a(O1, O2, N2, C2) [3]: 30.40
Pharmacophore torsion angle a(O1, O2, N2, CA2) [4]: 116.41
Pharmacophore torsion angle a(O1, O2, N2, CA3) [4]: 24.87
Pharmacophore torsion angle a(O1, O2, N2, O3) [4]: 43.95
Pharmacophore protein distance to MET_658 (first MET_658 column) (Table A8-6, 6th residue column, nearest protein atom in cell to the left): 2.53
Pharmacophore protein distance to MET_658 (second MET_658 column) (Table A8-6, 9th residue column, nearest protein atom in cell to the left): 3.26
Pharmacophore protein distance to GLY_528 [5]: 3.41
Pharmacophore protein distance to PHE_529 [5]: 3.23
Pharmacophore protein distance to PRO_608 [5]: 4.41
Pharmacophore protein distance to SER_611 [5]: 2.46
Pharmacophore protein distance to TRP_655 (Table A8-6, pharmacophore elements C6, CA3, O3, H1, nearest protein atom in cell to the left): 3.42
